{
  "source": "patent US8497245B2",
  "about": "“Trypsin-like serine protease inhibitors, their preparation and use as selective inhibitors of the clotting factors IIa and Xa” (The Medicines Company (Leipzig) GmbH, priority 2010, dated 2013)",
  "note": "pKi: −log10 of the molar value.",
  "data": [
    {"molecular_target": "T1, human Factor Xa (Homo sapiens, UniProt P00742)", "T1 construct": "human Factor Xa from Enzyme Research Laboratories; purchased Enzyme Research Laboratories", "T1 sequence (P00742 235-488 limits assumed)": "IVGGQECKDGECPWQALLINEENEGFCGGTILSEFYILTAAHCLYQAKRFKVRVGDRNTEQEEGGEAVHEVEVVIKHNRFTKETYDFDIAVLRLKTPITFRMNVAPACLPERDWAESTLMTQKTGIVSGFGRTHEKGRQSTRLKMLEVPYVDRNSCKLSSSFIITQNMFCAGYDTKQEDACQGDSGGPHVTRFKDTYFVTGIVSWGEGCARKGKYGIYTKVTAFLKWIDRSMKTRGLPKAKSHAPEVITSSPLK", "T1 sequence (P00742 41-179 partner limits assumed)": "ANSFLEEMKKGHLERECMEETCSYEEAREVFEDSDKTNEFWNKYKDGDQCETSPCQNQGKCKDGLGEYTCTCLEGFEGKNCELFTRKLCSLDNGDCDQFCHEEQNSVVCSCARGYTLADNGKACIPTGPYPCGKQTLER", "assay": "Inhibition constants for human factor Xa, chromogenic substrate assay", "assay_type": "biochemical", "conditions": "25° C., Pefachrome FXa substrate, average of at least three determinations; read-out: Ki h FXa", "description": "(§1) The inhibitory effect against the individual purified enzymes was determined in analogy to a previously disclosed method (Stürzebecher et al., J. Med. Chem., 40, 3091-3099 (1997)).\n(§2) 200 μL of TBS (0.05 M trishydroxymethylaminomethane; 0.154 M NaCl, 2% ethanol, pH 8.0)\n(§3) The release of p-nitroaniline (p-NA, the chromogenic product of the proteolytic activity), was determined by change in absorbance at 405 nm. The equilibrium rates were used to calculate the inhibitor/enzyme dissociation constant (Ki values) by parameter fitting in accordance with the rate equation for competitive inhibition using GraFit (version 4 from Erithacus). The results are reported as Ki values (nanomolar) in table 7 and are the average of at least three determinations.", "values": [
      {"smiles": "CN(C(=O)CC[C@@H](NS(=O)(=O)Cc1ccccc1)C(=O)N1CCC[C@H]1C(=O)NCc1cc(Cl)ccc1CN)C1CCOCC1", "note": "[Compound 2.26]", "pKi": 8.16},
      {"smiles": "CN(C(=O)CC[C@@H](NS(=O)(=O)Cc1ccccc1)C(=O)N1CCC[C@H]1C(=O)NCc1cc(Cl)ccc1CN)C1CCNCC1", "note": "[Compound 2.27]", "pKi": 7.74}
    ]},
    {"molecular_target": "T2, Human tissue-type plasminogen activator (h t-PA) (Homo sapiens, UniProt P00750)", "T2 construct": "purchased Boehringer Ingelheim Actilyse", "T2 sequence (P00750 36-562)": "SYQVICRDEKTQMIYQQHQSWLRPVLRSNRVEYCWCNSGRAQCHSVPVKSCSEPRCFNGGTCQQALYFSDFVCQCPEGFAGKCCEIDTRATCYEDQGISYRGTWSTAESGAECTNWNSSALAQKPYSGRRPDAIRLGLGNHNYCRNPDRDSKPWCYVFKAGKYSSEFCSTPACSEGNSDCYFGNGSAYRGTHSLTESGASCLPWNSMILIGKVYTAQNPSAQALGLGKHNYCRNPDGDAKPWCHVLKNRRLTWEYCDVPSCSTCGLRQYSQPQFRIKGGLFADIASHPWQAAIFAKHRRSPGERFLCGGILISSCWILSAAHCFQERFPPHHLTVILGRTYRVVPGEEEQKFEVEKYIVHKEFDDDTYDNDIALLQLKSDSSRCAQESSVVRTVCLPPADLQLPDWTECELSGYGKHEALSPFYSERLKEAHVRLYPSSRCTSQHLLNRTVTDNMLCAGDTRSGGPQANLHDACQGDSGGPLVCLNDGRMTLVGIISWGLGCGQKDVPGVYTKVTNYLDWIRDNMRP", "assay": "Inhibition of human tissue-type plasminogen activator (reference enzyme)", "assay_type": "biochemical", "conditions": "Pefachrome tPA substrate; read-out: Ki h t-PA", "description": "The equilibrium rates were used to calculate the inhibitor/enzyme dissociation constant (Ki values) by parameter fitting in accordance with the rate equation for competitive inhibition using GraFit (version 4 from Erithacus).\n(§4) Dissociation constants were calculated as described herein.", "values": [
      {"smiles": "CN(C(=O)CC[C@@H](NS(=O)(=O)Cc1ccccc1)C(=O)N1CCC[C@H]1C(=O)NCc1cc(Cl)ccc1CN)C1CCOCC1", "note": "[Compound 2.26]", "pKi": "< 4.00"},
      {"smiles": "CN(C(=O)CC[C@@H](NS(=O)(=O)Cc1ccccc1)C(=O)N1CCC[C@H]1C(=O)NCc1cc(Cl)ccc1CN)C1CCNCC1", "note": "[Compound 2.27]", "pKi": "< 4.00"}
    ]},
    {"molecular_target": "T3, Subcomponent \"s\" of Human Complement Component 1 (h C1s) (Homo sapiens, UniProt P09871)", "T3 construct": "purchased Calbiochem", "T3 sequence (P09871 438-688 limits assumed)": "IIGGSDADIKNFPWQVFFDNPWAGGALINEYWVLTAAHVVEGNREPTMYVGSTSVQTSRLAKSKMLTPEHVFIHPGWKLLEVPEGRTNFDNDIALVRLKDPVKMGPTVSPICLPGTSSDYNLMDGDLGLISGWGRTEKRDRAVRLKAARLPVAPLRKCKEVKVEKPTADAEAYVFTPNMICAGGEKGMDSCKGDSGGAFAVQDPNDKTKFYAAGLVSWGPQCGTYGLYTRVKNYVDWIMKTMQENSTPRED", "T3 sequence (P09871 16-437 partner limits assumed)": "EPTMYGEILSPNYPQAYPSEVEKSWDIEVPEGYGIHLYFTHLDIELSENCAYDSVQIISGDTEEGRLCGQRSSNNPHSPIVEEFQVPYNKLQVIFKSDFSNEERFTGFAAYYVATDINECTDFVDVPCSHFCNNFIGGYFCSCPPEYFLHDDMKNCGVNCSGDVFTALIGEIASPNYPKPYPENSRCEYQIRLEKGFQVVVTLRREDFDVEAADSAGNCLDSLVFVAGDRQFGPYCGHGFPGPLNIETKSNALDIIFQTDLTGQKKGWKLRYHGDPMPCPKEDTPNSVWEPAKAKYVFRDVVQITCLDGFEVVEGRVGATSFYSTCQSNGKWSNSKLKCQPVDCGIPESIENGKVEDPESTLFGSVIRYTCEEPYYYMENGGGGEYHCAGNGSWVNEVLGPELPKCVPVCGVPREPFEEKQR", "assay": "Inhibition of human C1s (reference enzyme)", "assay_type": "biochemical", "conditions": "S-2314 substrate; read-out: Ki h Cls", "description": "as §1, §3, §4", "values": [
      {"smiles": "CN(C(=O)CC[C@@H](NS(=O)(=O)Cc1ccccc1)C(=O)N1CCC[C@H]1C(=O)NCc1cc(Cl)ccc1CN)C1CCOCC1", "note": "[Compound 2.26]", "pKi": "< 5.00"},
      {"smiles": "CN(C(=O)CC[C@@H](NS(=O)(=O)Cc1ccccc1)C(=O)N1CCC[C@H]1C(=O)NCc1cc(Cl)ccc1CN)C1CCNCC1", "note": "[Compound 2.27]", "pKi": "< 4.00"}
    ]},
    {"molecular_target": "T4, Human urinary kallikrein (h uKK) (Homo sapiens, UniProt P06870)", "T4 construct": "purchased Lee Biosolutions", "T4 sequence (P06870 25-262)": "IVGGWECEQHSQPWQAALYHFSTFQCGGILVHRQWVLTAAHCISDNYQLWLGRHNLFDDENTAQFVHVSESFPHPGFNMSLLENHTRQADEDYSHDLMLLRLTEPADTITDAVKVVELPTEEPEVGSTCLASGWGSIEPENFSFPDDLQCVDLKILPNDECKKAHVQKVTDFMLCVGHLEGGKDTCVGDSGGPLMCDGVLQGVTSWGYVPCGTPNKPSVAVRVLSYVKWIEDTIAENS", "assay": "Inhibition of human urinary kallikrein (reference enzyme)", "assay_type": "biochemical", "conditions": "S-2266 substrate", "description": "as §1, §3, §4", "values": [
      {"smiles": "CN(C(=O)CC[C@@H](NS(=O)(=O)Cc1ccccc1)C(=O)N1CCC[C@H]1C(=O)NCc1cc(Cl)ccc1CN)C1CCOCC1", "note": "[Compound 2.26]", "pKi": "< 4.30"},
      {"smiles": "CN(C(=O)CC[C@@H](NS(=O)(=O)Cc1ccccc1)C(=O)N1CCC[C@H]1C(=O)NCc1cc(Cl)ccc1CN)C1CCNCC1", "note": "[Compound 2.27]", "pKi": "< 4.00"}
    ]},
    {"molecular_target": "T5, Human Activated Protein C (h aPC) (Homo sapiens, UniProt P04070)", "T5 construct": "purchased Enzyme Research Laboratories", "T5 sequence (P04070 212-450 limits assumed)": "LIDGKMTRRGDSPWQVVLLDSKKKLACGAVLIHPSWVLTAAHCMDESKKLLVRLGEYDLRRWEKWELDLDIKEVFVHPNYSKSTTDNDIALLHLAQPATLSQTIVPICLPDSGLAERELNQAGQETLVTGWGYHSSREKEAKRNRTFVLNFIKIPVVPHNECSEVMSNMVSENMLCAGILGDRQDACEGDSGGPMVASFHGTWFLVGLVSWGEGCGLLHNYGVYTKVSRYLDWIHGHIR", "T5 sequence (P04070 43-197 partner limits assumed)": "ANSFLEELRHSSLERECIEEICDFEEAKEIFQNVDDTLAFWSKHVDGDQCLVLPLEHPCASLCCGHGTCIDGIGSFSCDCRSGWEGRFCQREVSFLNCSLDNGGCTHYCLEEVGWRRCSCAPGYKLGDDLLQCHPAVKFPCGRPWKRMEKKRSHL", "assay": "Inhibition of human activated protein C (reference enzyme)", "assay_type": "biochemical", "conditions": "Pefachrome PCa substrate", "description": "as §1, §3, §4", "values": [
      {"smiles": "CN(C(=O)CC[C@@H](NS(=O)(=O)Cc1ccccc1)C(=O)N1CCC[C@H]1C(=O)NCc1cc(Cl)ccc1CN)C1CCOCC1", "note": "[Compound 2.26]", "pKi": "< 4.30"},
      {"smiles": "CN(C(=O)CC[C@@H](NS(=O)(=O)Cc1ccccc1)C(=O)N1CCC[C@H]1C(=O)NCc1cc(Cl)ccc1CN)C1CCNCC1", "note": "[Compound 2.27]", "pKi": "< 4.30"}
    ]},
    {"molecular_target": "T6, Human urokinase type plasminogen activator (h u-PA) (Homo sapiens, UniProt P00749)", "T6 construct": "purchased MEDAC GmbH Urokinase HS medac", "assay": "Inhibition of human urokinase type plasminogen activator (reference enzyme)", "assay_type": "biochemical", "conditions": "H-Glu-Gly-Arg-pNA substrate", "description": "as §1, §3, §4", "values": [
      {"smiles": "CN(C(=O)CC[C@@H](NS(=O)(=O)Cc1ccccc1)C(=O)N1CCC[C@H]1C(=O)NCc1cc(Cl)ccc1CN)C1CCOCC1", "note": "[Compound 2.26]", "pKi": "< 4.00"},
      {"smiles": "CN(C(=O)CC[C@@H](NS(=O)(=O)Cc1ccccc1)C(=O)N1CCC[C@H]1C(=O)NCc1cc(Cl)ccc1CN)C1CCNCC1", "note": "[Compound 2.27]", "pKi": "< 4.00"}
    ]},
    {"molecular_target": "T7, Human plasmin (h plasmin) (Homo sapiens, UniProt P00747)", "T7 construct": "purchased Calbiochem", "T7 sequence (P00747 581-810 limits assumed)": "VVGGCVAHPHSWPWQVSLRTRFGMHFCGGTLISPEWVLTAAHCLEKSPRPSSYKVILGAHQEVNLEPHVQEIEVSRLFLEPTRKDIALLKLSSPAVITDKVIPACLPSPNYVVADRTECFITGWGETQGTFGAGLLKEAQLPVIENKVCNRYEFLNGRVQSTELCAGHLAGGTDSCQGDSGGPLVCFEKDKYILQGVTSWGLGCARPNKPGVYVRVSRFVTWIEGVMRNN", "T7 sequence (P00747 97-580 partner limits assumed)": "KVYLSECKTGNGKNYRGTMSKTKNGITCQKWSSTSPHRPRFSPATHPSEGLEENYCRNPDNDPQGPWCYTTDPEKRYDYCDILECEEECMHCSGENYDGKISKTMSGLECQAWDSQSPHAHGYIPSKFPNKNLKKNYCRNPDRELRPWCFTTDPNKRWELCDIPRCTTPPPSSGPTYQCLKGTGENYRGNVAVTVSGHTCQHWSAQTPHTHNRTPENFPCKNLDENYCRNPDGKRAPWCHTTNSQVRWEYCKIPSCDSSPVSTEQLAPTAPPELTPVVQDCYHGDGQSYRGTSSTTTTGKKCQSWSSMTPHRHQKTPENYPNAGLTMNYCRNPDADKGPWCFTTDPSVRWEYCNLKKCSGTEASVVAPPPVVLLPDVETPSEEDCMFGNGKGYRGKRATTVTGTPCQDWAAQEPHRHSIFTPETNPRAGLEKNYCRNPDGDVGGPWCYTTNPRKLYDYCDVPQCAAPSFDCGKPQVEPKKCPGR", "assay": "Inhibition of human plasmin (reference enzyme)", "assay_type": "biochemical", "conditions": "Chromozym PL substrate", "description": "as §1, §3, §4", "values": [
      {"smiles": "CN(C(=O)CC[C@@H](NS(=O)(=O)Cc1ccccc1)C(=O)N1CCC[C@H]1C(=O)NCc1cc(Cl)ccc1CN)C1CCOCC1", "note": "[Compound 2.26]", "pKi": "< 4.52"},
      {"smiles": "CN(C(=O)CC[C@@H](NS(=O)(=O)Cc1ccccc1)C(=O)N1CCC[C@H]1C(=O)NCc1cc(Cl)ccc1CN)C1CCNCC1", "note": "[Compound 2.27]", "pKi": "< 5.00"}
    ]},
    {"molecular_target": "T8, Subcomponent \"r\" of Human Complement Component 1 (h C1r) (Homo sapiens, UniProt P00736)", "T8 construct": "purchased Calbiochem", "T8 sequence (P00736 464-705 limits assumed)": "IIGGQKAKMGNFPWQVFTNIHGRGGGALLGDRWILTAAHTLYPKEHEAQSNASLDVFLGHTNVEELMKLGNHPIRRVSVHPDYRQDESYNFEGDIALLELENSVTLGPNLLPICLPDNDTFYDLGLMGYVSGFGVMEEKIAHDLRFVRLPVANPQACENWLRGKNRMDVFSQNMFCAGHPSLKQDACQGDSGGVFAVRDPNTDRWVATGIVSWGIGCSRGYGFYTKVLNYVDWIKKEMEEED", "T8 sequence (P00736 18-463 partner limits assumed)": "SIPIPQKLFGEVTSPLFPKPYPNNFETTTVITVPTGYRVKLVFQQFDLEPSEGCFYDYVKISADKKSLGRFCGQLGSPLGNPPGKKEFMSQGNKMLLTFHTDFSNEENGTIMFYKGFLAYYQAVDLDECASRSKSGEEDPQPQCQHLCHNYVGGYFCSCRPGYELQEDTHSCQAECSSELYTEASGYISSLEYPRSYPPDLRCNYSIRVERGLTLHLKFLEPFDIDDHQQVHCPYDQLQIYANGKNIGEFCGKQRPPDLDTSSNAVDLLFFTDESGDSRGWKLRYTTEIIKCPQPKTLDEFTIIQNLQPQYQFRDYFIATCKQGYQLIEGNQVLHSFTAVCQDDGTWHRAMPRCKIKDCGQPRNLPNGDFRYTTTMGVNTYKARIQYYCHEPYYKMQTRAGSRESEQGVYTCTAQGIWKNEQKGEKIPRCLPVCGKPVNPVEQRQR", "assay": "Inhibition of human C1r (reference enzyme)", "assay_type": "biochemical", "conditions": "S-2314 substrate; read-out: Ki h Clr", "description": "as §1, §3, §4", "values": [
      {"smiles": "CN(C(=O)CC[C@@H](NS(=O)(=O)Cc1ccccc1)C(=O)N1CCC[C@H]1C(=O)NCc1cc(Cl)ccc1CN)C1CCOCC1", "note": "[Compound 2.26]", "pKi": "< 4.00"},
      {"smiles": "CN(C(=O)CC[C@@H](NS(=O)(=O)Cc1ccccc1)C(=O)N1CCC[C@H]1C(=O)NCc1cc(Cl)ccc1CN)C1CCNCC1", "note": "[Compound 2.27]", "pKi": "< 4.00"}
    ]},
    {"molecular_target": "T9, human factor IIa (human alpha-thrombin) (Homo sapiens, UniProt P00734)", "T9 construct": "human alpha-thrombin from Enzyme Research Laboratories; purchased Enzyme Research Laboratories", "assay": "Inhibition constants for human factor IIa, chromogenic substrate assay", "assay_type": "biochemical", "conditions": "25° C., Pefachrome tPA substrate, average of at least three determinations; read-out: Ki h FIIa", "description": "as §1, §2, §3", "values": [
      {"smiles": "CN(C(=O)CC[C@@H](NS(=O)(=O)Cc1ccccc1)C(=O)N1CCC[C@H]1C(=O)NCc1cc(Cl)ccc1CN)C1CCOCC1", "note": "[Compound 2.26]", "pKi": 9.00},
      {"smiles": "CN(C(=O)CC[C@@H](NS(=O)(=O)Cc1ccccc1)C(=O)N1CCC[C@H]1C(=O)NCc1cc(Cl)ccc1CN)C1CCNCC1", "note": "[Compound 2.27]", "pKi": 9.10}
    ]},
    {"molecular_target": "T10, Human plasma kallikrein (h PK) (Homo sapiens, UniProt P03952)", "T10 construct": "purchased Enzyme Research Laboratories", "T10 sequence (P03952 391-638 limits assumed)": "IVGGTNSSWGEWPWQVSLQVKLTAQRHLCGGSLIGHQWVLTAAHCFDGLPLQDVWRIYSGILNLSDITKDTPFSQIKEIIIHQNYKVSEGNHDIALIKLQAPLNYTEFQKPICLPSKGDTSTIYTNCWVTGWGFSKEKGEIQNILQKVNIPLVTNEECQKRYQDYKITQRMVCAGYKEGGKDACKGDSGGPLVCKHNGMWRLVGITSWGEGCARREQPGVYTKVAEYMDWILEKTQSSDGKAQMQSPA", "T10 sequence (P03952 20-390 partner limits assumed)": "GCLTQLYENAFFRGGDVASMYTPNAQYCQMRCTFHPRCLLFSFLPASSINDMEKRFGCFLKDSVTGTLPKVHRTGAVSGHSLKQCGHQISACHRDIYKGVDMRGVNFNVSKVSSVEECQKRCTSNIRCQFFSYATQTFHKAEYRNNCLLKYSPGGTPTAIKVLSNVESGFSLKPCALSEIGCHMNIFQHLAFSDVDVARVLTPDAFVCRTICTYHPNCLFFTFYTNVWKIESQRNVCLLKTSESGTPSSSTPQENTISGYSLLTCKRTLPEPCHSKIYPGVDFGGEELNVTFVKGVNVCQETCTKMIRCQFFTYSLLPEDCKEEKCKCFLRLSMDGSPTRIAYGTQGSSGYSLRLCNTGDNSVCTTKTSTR", "assay": "Inhibition of human plasma kallikrein (reference enzyme)", "assay_type": "biochemical", "conditions": "S2302 substrate", "description": "as §1, §3, §4", "values": [
      {"smiles": "CN(C(=O)CC[C@@H](NS(=O)(=O)Cc1ccccc1)C(=O)N1CCC[C@H]1C(=O)NCc1cc(Cl)ccc1CN)C1CCOCC1", "note": "[Compound 2.26]", "pKi": 5.59},
      {"smiles": "CN(C(=O)CC[C@@H](NS(=O)(=O)Cc1ccccc1)C(=O)N1CCC[C@H]1C(=O)NCc1cc(Cl)ccc1CN)C1CCNCC1", "note": "[Compound 2.27]", "pKi": 5.78}
    ]}
  ]
}
